Experimental data published in article PMC12458691 (Inorganic Chemistry, 2025).
Where two headings read alike, the source gives them in different places.

Assays:
[1] = set-up: method as in footnotes c–f, numbers not given; conditions: Cu2+ complexes/salt/enzyme, literature data for comparison; ref footnotes c–f, numbers not given; cited from earlier work
[2] = Catalase activity by pressure monitoring of evolved O2; type: biochemical; conditions: 25°C, pH 7.5
Method: The quantification of the evolved oxygen is frequently used to evaluate the catalase activity. − In this work, the amount of gas evolved during the reaction of the Fe^2+–^ COOH PyNMe 3 complex with hydrogen peroxide was monitored by measuring the pressure changes over time using a previously calibrated Man on the Moon X104 gas evolution kit. For that purpose, 2.5 mL of an aqueous solution of the complex at concentrations of (0.5–2.7) × 10^–4 M buffered at pH 7.5 with TRIS (50 mM) was prepared inside a glovebox, placed in a closed reaction vessel, and purged with nitrogen. Once the pressure readings were stabilized, 0.2–1.2 mL of a 0.12 M aqueous solution of H2O2 (also prepared in TRIS 50 mM at pH 7.4) was added, and the pressure was then measured as a function of time. A blank experiment was conducted with a complex-free solution of a 50 mM TRIS solution with hydrogen peroxide at pH 7.4, where no O2 evolution was detected. The same result was obtained for blank experiments, including also the ligand but not the metal ion or the free metal ion (i.e., Fe^2+, Fe^3+, or Cu^2+) in the absence of the ligand (see Entries 8–12 in Table ). […] Nevertheless, the possible formation of small amounts of CO2, which would introduce a small error in the estimation of evolved O2, cannot be completely ruled out.

[3] = 0.15 M NaClO4, 298.1 K; ref footnote c, number not printed; cited from earlier work
[4] = 0.15 M NaClO4, 298.1 K, ref footnote c, number not printed, cited from earlier work
[5] = Stability constants and speciation of Cu2+ complexes by potentiometric measurements; type: physicochemical; conditions: for pCu: calculated for theoretical solutions
Method: (§1) Caution! Perchlorate salts are explosive and should be handled with care; such compounds should never be heated as solids. The potentiometric titrations were carried out at 298.1 ± 0.1 K using 0.15 M NaClO4 as the supporting electrolyte. The experimental procedure (buret, potentiometer, cell, stirrer, microcomputer, etc.) has been fully described elsewhere. The acquisition of raw potentiometric data was performed with the computer program PASAT. The reference electrode was a Ag/AgCl electrode in a saturated KCl solution. The glass electrode was calibrated as a hydrogen-ion concentration probe by titration of previously standardized amounts of HCl with CO2-free NaOH solutions, and the equivalent point was determined by Gran’s method, , which gives the standard potential, E̊, and the ionic product of water (pK w = 13.73(1)). The computer program […] was used to calculate the protonation and stability constants. The HYSS program was used to obtain the distribution diagrams. The pH range investigated by using this technique was 2.5–11.0, in accordance with the linear response range of glass electrodes. The solutions were extensively deaerated with an argon flow before the potentiometric runs. A moderate argon flow was maintained throughout the course of the titrations. The different titration curves for each system (at least two) were treated either as a single set or as separate curves without significant variations in the values of the stability constants. Finally, the sets of data were merged and treated simultaneously to give the final stability constants.

[6] = McCord–Fridovich nitroblue tetrazolium (NBT) SOD activity assay; type: biochemical; conditions: for SOD activity of the Fe2+ complexes (in words): NBT method, under the conditions of this study; for increase in the SOD catalytic constant of the Cu2+ complex on functionalization of the pyridine: relative to Cu2+ complexes of HPyNH3 or HPyNMe3
From the text: First, the SOD activity of the complexes was studied by means of the nitroblue tetrazolium (NBT) method, also known as McCord–Fridovich method. This is a widely used, indirect method based on the side production of superoxide anions by the xanthine oxidase enzyme and their capture by the NBT dye to give formazan. − A compound displaying SOD activity decreases the flow of superoxide radical anions and, thereby, the production of formazan (see the representation of the fitting of the data in Figures and S13–S16). Thus, by following the absorption band of formazan at 560 nm, the SOD activity of the studied mimetic can be quantified. Blank experiments were recorded with the ligands alone without observing any effect. The values of IC50, defined as the amount of the compound necessary for achieving 50% inhibition of NBT reduction to formazan by the superoxide anion, together with the catalytic constants (k cat), were obtained as indicated in the Experimental Section and are summarized in Table .
The SOD-like activity was determined by using the nitroblue tetrazolium (NBT) method, which despite its limitations is frequently used to estimate the activity of SOD mimetics. − The assays were carried out in a pH = 7.4 50 mM HEPES buffer at 298 K. The xanthine (2.2 × 10^–4 M) and xanthine oxidase (ca. 3 UN) system was used to generate a reproducible and constant flux of superoxide anions. […] Data in the absence of the complex were used as a reference. […] The percentage of inhibition of the NBT reduction to formazan was used as a measure of the SOD activity of the compounds. The concentration of the complex required to yield 50% inhibition of NBT reduction (IC50) was determined from a plot of percentage inhibition versus complex concentration. The IC50 data were calculated from the mean values of (at least) three independent measurements. The catalytic constant was calculated from the IC50 using the equation k cat = k NBT[NBT]/IC50 where k NBT = (5.94 ± 0.5) × 10^4 M^–1 s^–1. −

[7] = Protonation constants by potentiometric and UV–vis titrations; type: physicochemical
Method: as §1
The solvents used were of spectroscopic or equivalent grade. Water was twice distilled and passed through a Millipore apparatus. The pH values were measured with a Metrohm 713 pH meter, and adjustments of the hydrogen-ion concentration of the solutions were made with diluted HCl and NaOH solutions. UV–vis absorption spectra were recorded between pH 2 and 11 with an Agilent 8453 spectrometer. The resulting data from the titrations were used to calculate the third protonation constant of ^ COOMe PyNMe 3 . For this, the HypSpec program was employed, considering all of the absorbance intensities in the range of 250 and 350 nm.

[8] = Stability constants and speciation of Fe2+ complexes by potentiometric measurements; type: physicochemical; conditions: for pFe: calculated for theoretical solutions
Method: as §1

[9] = entry 10: no ligand, [Cu2+]0 2.7 × 10^–4 M as Cu(ClO4)2, [H2O2]0 4.3 × 10^–2 M
[10] = entry 8: no ligand, [Fe2+]0 2.14 × 10^–4 M as Fe(SO4), [H2O2]0 3.4 × 10^–2 M
[11] = entry 9: no ligand, 2.14 × 10^–4 M FeCl3, [H2O2]0 3.4 × 10^–2 M
[12] = 0.15 M NaClO4, 298.1 K, potentiometry
[13] = entry 12: ligand alone 2.14 × 10^–4, no metal ion, [H2O2]0 3.4 × 10^–2 M

For [Cu+2].[O-][Cl+3]([O-])([O-])[O-].[O-][Cl+3]([O-])([O-])[O-] [Cu(ClO4)2], the “k cat (SOD catalytic constant)” value [1] is listed as 2.7 10^6 M^–1 s^–1, the “TON (moles of H2O2 decomposed by one mol of metal ions)” value [2, 9] is listed as 0 and the “nO2(g)” value [2, 9] is listed as 0 mol.
For O=S(=O)([O-])[O-].[Fe+2] [Fe(SO4)], the “TON (moles of H2O2 decomposed by one mol of metal ions)” value [2, 10] was 0 and the “nO2(g)” value [2, 10] was 0 mol.
With [Cl][Fe]([Cl])[Cl] [FeCl3] the “TON (moles of H2O2 decomposed by one mol of metal ions)” value [2, 11] was 0 and the “nO2(g)” value [2, 11] was 0 mol.
In the case of O=C(O)c1cc2nc(c1)CNCCNCCNC2 [^ COOH PyNH 3], the “k cat (SOD catalytic constant)” value [1] is listed as 9.7 10^6 M^–1 s^–1, the “log K, H2L^(2+x)++H^+⇄H3L^(3+x)+ (stepwise protonation constant)” value [3] is listed as 2.25(2) and the “log K, HL^(1+x)++H^+⇄H2L^(2+x)+ (stepwise protonation constant)” value [3] is listed as 7.90(1). For the same compound, the “log K, L^x+H^+⇄HL^(1+x)+ (stepwise protonation constant)” value [3] was 10.80(1) ^d, the “log β (∑log K, protonation)” value [3] was 20.95 and the “log K, Cu+L⇄[CuL] (stability constant)” value [4] was 17.62(2) ^c, ^d. The “log K, [CuL]+H2O⇄[CuL(OH)]+H” value [4] was “–9.07(2) ^c”, the “log K, Cu+L⇄[CuL] (stability constant)” value ([4]; listed as COOHPyNH3) was 17.62 and the pCu ([5]; pH 7.4, [L]=[M]=1 µM) was 9.80. The pCu ([5]; pH 7.4, [L]=[M]=10 µM) was 9.30, the “SOD activity of the Fe2+ complexes (in words)” value [6] was “negligible SOD activity” and the “increase in the SOD catalytic constant of the Cu2+ complex on functionalization of the pyridine” value [6] was 6- to 10 fold.
For CN1CCN(C)Cc2cc(C(=O)O)cc(n2)CN(C)CC1 [^ COOH PyNMe 3], the “log β (∑log K, protonation)” value ([7]; 0.15 M NaClO4, 298.1 K) was 21.53, the “log K, H2L^(2+x)++H^+⇄H3L^(3+x)+ (stepwise protonation constant)” value [7, 12] was 2.90(4) and the “log K, HL^(1+x)++H^+⇄H2L^(2+x)+ (stepwise protonation constant)” value [7, 12] was 7.73(3). For the same compound, the “log K, L^x+H^+⇄HL^(1+x)+ (stepwise protonation constant)” value [7, 12] was 10.90(2), the “three protonation constants, span from first to third” value ([7]; potentiometric titrations (third constant of COOMePyNMe3 by UV)) was 10.90 to 2.90 logarithmic units and the “TON (moles of H2O2 decomposed by one mol of metal ions)” value [2, 13] was 0. For the same compound, the “nO2(g)” value [2, 13] was 0 mol, the “log K, Fe+L⇄[FeL] (stability constant)” value ([8]; 0.15 M NaClO4, 298.1 K) was 10.02(2) and the “log K, [FeL]+H2O⇄[FeL(OH)]+H” value ([8]; 0.15 M NaClO4, 298.1 K) was “–9.44(4)”. The pFe ([8]; pH 7.4, [L]=[M]=1 µM) was 6.22, the pFe ([8]; pH 7.4, [L]=[M]=10 µM) was 5.58 and the “free Fe2+” value ([8]; pH 7.5, [COOHPyNMe3]=[Fe2+]=50 µM, 0.15 M NaClO4 (Figure S19)) was 10.9%. For the same compound, the “free Fe2+” value ([8]; pH 7.5, [COOHPyNMe3]=[Fe2+]=270 µM, 0.15 M NaClO4 (Figure S18)) was 4.8%, the “log K, Cu+L⇄[CuL] (stability constant)” value ([5]; 0.15 M NaClO4, 298.1 K) was 16.35(4) and the “log K, [CuL]+H2O⇄[CuL(OH)]+H” value ([5]; 0.15 M NaClO4, 298.1 K) was “–9.24(7)”. The “log K, Cu+L⇄[CuL] (stability constant)” value ([5]; 0.15 M NaClO4, 298.1 K, listed as COOHPyNMe3) was 16.35, the pCu ([5]; pH 7.4, [L]=[M]=1 µM) was 9.18 and the pCu ([5]; pH 7.4, [L]=[M]=10 µM) was 8.68. The “SOD activity of the Fe2+ complexes (in words)” value [6] was “negligible SOD activity”, the “k cat (SOD catalytic constant)” value ([6]; metal complexes, calculated from IC50 as kNBT[NBT]/IC50, pH 7.4, [NBT] = 59 μM) was 12.3 10^6 M^–1 s^–1 and the “increase in the SOD catalytic constant of the Cu2+ complex on functionalization of the pyridine” value [6] was 6- to 10 fold.
